Measured values: publication PMC4012464, “Design, Synthesis and Biological Evaluation of Tasiamide Analogues as Tumor Inhibitors” (Marine Drugs, 2014)
Where two headings read alike, the source gives them in different places. Non-standard residues stand in square brackets, D forms with d. Residues, ends and D or L forms follow the SMILES beside them. *: point of attachment. Pentanoyl(2S-OH,3S-Me) = CC[C@H](C)[C@H](O)C(=O)*; Tetrahydroisoquinolin(2-yl) = c1ccc2c(c1)CCN(*)C2; dNMeF = CN[C@H](Cc1ccccc1)C(=O)O; NMeQ = CN[C@@H](CCC(N)=O)C(=O)O; Tic = O=C(O)[C@@H]1Cc2ccccc2CN1; X1 = CN(C)[C@H](CCC(N)=O)C(=O)*; dNMeQ = CN[C@H](CCC(N)=O)C(=O)O; NMeA = CN[C@@H](C)C(=O)O; Pentanoyl = CCCCC(=O)*; NHBn = c1ccc(CN*)cc1; Glycolyl = O=C(CO)*; NHPh = c1ccc(N*)cc1; OBn = c1ccc(CO*)cc1

Tests used:
[1] = tested on: KB, human nasopharyngeal carcinoma cell line; assay: cells; type: cell-based; details: growth inhibition after 72 h of drug exposure, SRB staining, A515, means ± standard deviation from three independent experiments, read-out: In vitro inhibitory activity IC50, KB
Experimental: (§1) All of the prepared analogues (S1–S4, C1–C9, N1–N2, M1–M3) were tested for their in vitro anticancer activities against KB and A549 cell lines. Briefly, cells were seeded into 96-well plates and cultured overnight, treated with tested samples for 72 h. Then, the cells were fixed with 10% trichloroacetic acid (100 µL) and stained with sulforhodamine B (Sigma, St. Louis, MO, USA). The sulforhodamine B (100 µL) in the cells was dissolved in 10 mmol/L Tris-HCl (150 µL) and measured at 515 nm using a multiwell spectrophotometer (VERSAmax, Molecular Devices, Sunnyvale, CA, USA). The inhibition rate on cell proliferation was calculated for each well as (A515control cells − A515treated cells)/A515control cells × 100% (A515: optical density value at 515 nm). The average IC50 values were determined by the Logit method from at least three independent tests.

[2] = tested on: A549, human non-small cell lung tumor cell line; assay: cells; type: cell-based; details: growth inhibition after 72 h of drug exposure, SRB staining, A515, means ± standard deviation from three independent experiments, read-out: In vitro inhibitory activity IC50, A549
Experimental: as §1

[3] = tested on: human nasopharyngeal carcinoma (KB) cell line; details: natural product isolated from Symploca sp.; cited from earlier work
From the text: (§2) Marine cyanobacteria are a well-known prolific source of novel bioactive compounds [1, 2, 3], most of which are linear or cyclic (depsi)peptides with distinctive structures. […] The first total synthesis of tasiamide was reported by our group in 2008.

[4] = tested on: human colon carcinoma (LoVo) cell line; details: natural product isolated from Symploca sp.; cited from earlier work
From the text: as §2

Row | IC50 ([1]; Homo sapiens) [µM] | IC50 ([2]; Homo sapiens) [µM] | SMILES | IC50 [1] [µM] | IC50 [2] [µM] | Cytotoxicity IC50, KB [3] [µg/mL] | Cytotoxicity IC50, LoVo [4] [µg/mL]
1 |  |  | CC[C@H](C)[C@H](O)C(=O)N[C@@H](CC(C)C)C(=O)N(C)[C@@H](CCC(N)=O)C(=O)N[C@H](C(=O)NCC(=O)N(C)[C@H](Cc1ccccc1)C(=O)Nc1ccccc1)[C@@H](C)CC [Compound C1, HO-Hmp-Leu-N-Me-Gln-Ile-Gly-N-Me-D-Phe-NH-Ph] ({Pentanoyl(2S-OH,3S-Me)}-L[NMeQ]IG[dNMeF]-NHPh) | 3.21 ± 0.6 | 4.17 ± 0.51 |  | 
2 |  |  | CC[C@H](C)[C@H](O)C(=O)N[C@@H](CC(C)C)C(=O)N(C)[C@H](CCC(N)=O)C(=O)N[C@H](C(=O)NCC(=O)N(C)[C@H](Cc1ccccc1)C(=O)Nc1ccccc1)[C@@H](C)CC [Compound C2, HO-Hmp-Leu-N-Me-D-Gln-Ile-Gly-N-Me-D-Phe-NH-Ph] ({Pentanoyl(2S-OH,3S-Me)}-L[dNMeQ]IG[dNMeF]-NHPh) | 8.26 ± 1.22 | > 50 |  | 
3 |  |  | CC[C@H](C)[C@H](O)C(=O)N[C@@H](CC(C)C)C(=O)N(C)[C@@H](CCC(N)=O)C(=O)N[C@H](C(=O)NCC(=O)N(C)[C@H](Cc1ccccc1)C(=O)NCc1ccccc1)[C@@H](C)CC [Compound C3, HO-Hmp-Leu-N-Me-Gln-Ile-Gly-N-Me-D-Phe-NH-Bn] ({Pentanoyl(2S-OH,3S-Me)}-L[NMeQ]IG[dNMeF]-NHBn) | 2.08 ± 0.33 | 2.24 ± 0.44 |  | 
4 |  |  | CC[C@H](C)[C@H](O)C(=O)N[C@@H](CC(C)C)C(=O)N(C)[C@H](CCC(N)=O)C(=O)N[C@H](C(=O)NCC(=O)N(C)[C@H](Cc1ccccc1)C(=O)NCc1ccccc1)[C@@H](C)CC [Compound C4, HO-Hmp-Leu-N-Me-D-Gln-Ile-Gly-N-Me-D-Phe-NH-Bn] ({Pentanoyl(2S-OH,3S-Me)}-L[dNMeQ]IG[dNMeF]-NHBn) | 1.29 ± 0.31 | 8.48 ± 1.39 |  | 
5 |  |  | CC[C@H](C)[C@H](O)C(=O)N[C@@H](CC(C)C)C(=O)N(C)[C@@H](CCC(N)=O)C(=O)N[C@H](C(=O)NCC(=O)N(C)[C@H](Cc1ccccc1)C(=O)N1Cc2ccccc2C[C@H]1C(=O)OC)[C@@H](C)CC [Compound C5, HO-Hmp-Leu-N-Me-Gln-Ile-Gly-N-Me-D-Phe-NH-MTC] ({Pentanoyl(2S-OH,3S-Me)}-L[NMeQ]IG[dNMeF][Tic]-OMe) | 2.45 ± 0.41 | 5.24 ± 1.12 |  | 
6 |  |  | CC[C@H](C)[C@H](O)C(=O)N[C@@H](CC(C)C)C(=O)N(C)[C@H](CCC(N)=O)C(=O)N[C@H](C(=O)NCC(=O)N(C)[C@H](Cc1ccccc1)C(=O)N1Cc2ccccc2C[C@H]1C(=O)OC)[C@@H](C)CC [Compound C6, HO-Hmp-Leu-N-Me-D-Gln-Ile-Gly-N-Me-D-Phe-NH-MTC] ({Pentanoyl(2S-OH,3S-Me)}-L[dNMeQ]IG[dNMeF][Tic]-OMe) | 8.52 ± 1.41 | 12.9 ± 1.32 |  | 
7 |  |  | CC[C@H](C)[C@H](O)C(=O)N[C@@H](CC(C)C)C(=O)N(C)[C@@H](CCC(N)=O)C(=O)N[C@H](C(=O)NCC(=O)N(C)[C@H](Cc1ccccc1)C(=O)N1CCc2ccccc2C1)[C@@H](C)CC [Compound C7, HO-Hmp-Leu-N-Me-Gln-Ile-Gly-N-Me-D-Phe-NH-TIQ] ({Pentanoyl(2S-OH,3S-Me)}-L[NMeQ]IG[dNMeF]-{Tetrahydroisoquinolin(2-yl)}) | 3.8 ± 0.46 | 3.67 ± 0.66 |  | 
8 |  |  | CC[C@H](C)[C@H](O)C(=O)N[C@@H](CC(C)C)C(=O)N(C)[C@H](CCC(N)=O)C(=O)N[C@H](C(=O)NCC(=O)N(C)[C@H](Cc1ccccc1)C(=O)N1CCc2ccccc2C1)[C@@H](C)CC [Compound C8, HO-Hmp-Leu-N-Me-D-Gln-Ile-Gly-N-Me-D-Phe-NH-TIQ] ({Pentanoyl(2S-OH,3S-Me)}-L[dNMeQ]IG[dNMeF]-{Tetrahydroisoquinolin(2-yl)}) | 3.64 ± 0.55 | > 50 |  | 
9 |  |  | CC[C@H](C)[C@H](O)C(=O)N[C@@H](CC(C)C)C(=O)N(C)[C@@H](C)C(=O)N[C@H](C(=O)NCC(=O)N(C)[C@H](Cc1ccccc1)C(=O)NCc1ccccc1)[C@@H](C)CC [Compound C9, HO-Hmp-Leu-N-Me-Ala-Ile-Gly-N-Me-D-Phe-NH-Bn] ({Pentanoyl(2S-OH,3S-Me)}-L[NMeA]IG[dNMeF]-NHBn) | > 50 | > 50 |  | 
10 |  |  | CC[C@H](C)[C@H](O)C(=O)N[C@@H](CC(C)C)C(=O)N[C@H](CCC(N)=O)C(=O)N[C@H](C(=O)NCC(=O)N(C)[C@H](Cc1ccccc1)C(=O)NCc1ccccc1)[C@@H](C)CC [Compound M1, HO-Hmp-Leu-D-Gln-Ile-Gly-N-Me-D-Phe-NH-Bn] ({Pentanoyl(2S-OH,3S-Me)}-L[dQ]IG[dNMeF]-NHBn) | > 50 | > 50 |  | 
11 |  |  | CC[C@H](C)[C@H](O)C(=O)N[C@@H](CC(C)C)C(=O)N(C)[C@H](CCC(N)=O)C(=O)N[C@H](C(=O)NCC(=O)N[C@H](Cc1ccccc1)C(=O)NCc1ccccc1)[C@@H](C)CC [Compound M2, HO-Hmp-Leu-N-Me-D-Gln-Ile-Gly-D-Phe-NH-Bn] ({Pentanoyl(2S-OH,3S-Me)}-L[dNMeQ]IG[dF]-NHBn) | > 50 | > 50 |  | 
12 |  |  | CC[C@H](C)[C@H](O)C(=O)N[C@@H](CC(C)C)C(=O)N[C@H](CCC(N)=O)C(=O)N[C@H](C(=O)NCC(=O)N[C@H](Cc1ccccc1)C(=O)NCc1ccccc1)[C@@H](C)CC [Compound M3, HO-Hmp-Leu-D-Gln-Ile-Gly-D-Phe-NH-Bn] ({Pentanoyl(2S-OH,3S-Me)}-L[dQ]IG[dF]-NHBn) | > 50 | > 50 |  | 
13 |  |  | CCCCC(=O)N[C@@H](CC(C)C)C(=O)N(C)[C@H](CCC(N)=O)C(=O)N[C@H](C(=O)NCC(=O)N(C)[C@H](Cc1ccccc1)C(=O)NCc1ccccc1)[C@@H](C)CC [Compound N1, n-Pentanoyl-Leu-N-Me-D-Gln-Ile-Gly-N-Me-D-Phe-NH-Bn] (Pentanoyl-L[dNMeQ]IG[dNMeF]-NHBn) | > 50 | > 50 |  | 
14 |  |  | CC[C@H](C)[C@H](NC(=O)[C@@H](CCC(N)=O)N(C)C(=O)[C@H](CC(C)C)NC(=O)CO)C(=O)NCC(=O)N(C)[C@H](Cc1ccccc1)C(=O)NCc1ccccc1 [Compound N2, 2-Hydroxyacetyl-Leu-N-Me-D-Gln-Ile-Gly-N-Me-D-Phe-NH-Bn] (Glycolyl-L[dNMeQ]IG[dNMeF]-NHBn) | > 50 | > 50 |  | 
15 |  |  | CC[C@H](C)[C@H](NC(=O)[C@@H](CCC(N)=O)N(C)C)C(=O)NCC(=O)N(C)[C@H](Cc1ccccc1)C(=O)N1CCC[C@H]1C(=O)OC [Compound S1, N,N-Me2-D-Gln-Ile-Gly-N-Me-D-Phe-Pro-OMe] (X1-IG[dNMeF]P-OMe) | > 50 | > 50 |  | 
16 |  |  | CC[C@H](C)[C@@H](C(=O)NCC(=O)N(C)[C@H](Cc1ccccc1)C(=O)N1CCC[C@H]1C(=O)OC)N(C)C [Compound S2, N,N-Me2-Ile-Gly-N-Me-D-Phe-Pro-OMe] | > 50 | > 50 |  | 
17 |  |  | CC[C@H](C)[C@H](O)C(=O)N[C@@H](CC(C)C)C(=O)N(C)[C@H](CCC(N)=O)C(=O)N[C@H](C(=O)OCc1ccccc1)[C@@H](C)CC [Compound S3, HO-Hmp-Leu-N-Me-D-Gln-Ile-OBn] | > 50 | > 50 |  | 
18 |  |  | CC[C@H](C)[C@H](O)C(=O)N[C@@H](CC(C)C)C(=O)N(C)[C@H](CCC(N)=O)C(=O)N[C@H](C(=O)NCC(=O)OCc1ccccc1)[C@@H](C)CC [Compound S4, HO-Hmp-Leu-N-Me-D-Gln-Ile-Gly-OBn] ({Pentanoyl(2S-OH,3S-Me)}-L[dNMeQ]IG-OBn) | > 50 | > 50 |  | 
19 |  |  | CC[C@H](C)[C@H](O)C(=O)N[C@@H](CC(C)C)C(=O)N(C)[C@H](CCC(N)=O)C(=O)N[C@H](C(=O)NCC(=O)N(C)[C@H](Cc1ccccc1)C(=O)N1CCC[C@H]1C(=O)OC)[C@@H](C)CC [Compound T2, tasiamide] ({Pentanoyl(2S-OH,3S-Me)}-L[dNMeQ]IG[dNMeF]P-OMe) | 0.58 ± 0.07 | > 50 | 0.48 | 3.47
20 | 0.85 ± 0.08 | 0.99 ± 0.09 | COc1cc([C@@H]2c3cc4c(cc3[C@@H](O[C@@H]3O[C@@H]5CO[C@@H](C)O[C@H]5[C@H](O)[C@H]3O)[C@H]3COC(=O)[C@H]23)OCO4)cc(OC)c1O [Etoposide, etoposide, reference compound] |  |  |  | 
